These results are taken from patent publication US12357606B2, “Compositions and methods for treating defects in avascular cartilaginous tissue by directly administering one or more metabolites of simvastatin” (University of Cincinnati, priority 2017, dated 2025).

For one test, the system named is avascular tissue. In words: Regeneration of avascular tissue upon direct administration. As to conditions: for regeneration on administration: non-HMG-CoA reductase inhibitor metabolites.
A further test deals with BMP-2. As to conditions: non-HMG-CoA reductase inhibitor metabolites.
Test [1] has as its system BMP-2 mRNA expression in rat NP cells. In words: BMP-2 mRNA expression in rat NP cells cultured in alginate beads (RT-qPCR). The format is cell-based. As to conditions: for BMP-2 mRNA expression with a GGTase inhibitor, level compared with SV: single GGTase inhibitor. The source says: Data are normalized with GAPDH and are expressed as ratio to vehicle (DMSO).
Findings from the investigation on SV stimulating endogenous BMP-2 expression in the treated NP cells, which in turn increases chondrogenic phenotype expression (aggrecan and type II collagen mRNA expression as well as sGAG content), were consistent with the above observations, validating that the small molecule is as efficacious in promoting chondrogenesis as to osteogenesis. […] SV has been prescribed widely for the treatment of hypercholesterolaemia and hypertriglyceridaemia. In humans, it undergoes rapid metabolism to form four major oxidative, NADPH-dependent metabolites, 3′-hydroxy SV (hSV), 6′-exomethylene SV (eSV), 3′,5′-dihydrodiol SV (dSV), and SVA (FIG. 5). […] This raised the question as to whether SVA is dominant in the entire scheme of BMP-2 upregulation. To test whether the levels of induced-BMP-2 by both SV and SVA, respectively, would be any different, the present investigators used the in vitro model system developed in the prior study to conduct the test. Rat NP cells harvested from tail discs were cultured initially in monolayer and then in alginate beads (Zhang H. et al. Spine, 2008; 33(16), the entire disclosure of which is incorporated herein by reference). Cells were treated with DMSO (vehicle), SV or SVA at 1 or 3 μM. Cells were then collected at pre-determined time points and with RNA extracted. Gene expression was analyzed by RT-qPCR. […] The BMP-2 level induced in the SVA group was 5-6 times higher than that in the SV one (FIG. 1A).
The classic mechanism understood for cholesterol lowering by statins is that statins act by competitively inhibiting HMG-CoA reductase, the first committed enzyme of the mevalonate (MVA) pathway. This competition reduces the rate by which HMG-CoA reductase is able to produce MVA, the next molecule in the cascade for the synthesis of prenylation enzyme substrates FPP and GGPP that eventually help produce cholesterol. As indicated previous studies by the inventors (Zhang H. N., Lin C. Y. Spine. 2008; 33(16), fully incorporated herein by reference), when SV was present, BMP-2 mRNA expression of NP cells always responded in a time and dose-dependent manner.
For orientation: Quantitative PCR measures a nucleic acid by following its amplification.

The test system of the next test is mevalonate conversion. Nature of the test: Inhibition of mevalonate conversion. The format is biochemical.

Regarding 3′-hydroxy simvastatin [hSV], the regeneration on administration entry in the test on avascular tissue is on record as “promoted a degree of regeneration”. In addition, the “effect on BMP-2 upregulation” value with BMP-2 was “also affect BMP-2 upregulation”.

Consider `COC(=O)[C@H](CC(C)C)NC(=O)c1ccc(NC[C@@H](N)CS)cc1-c1ccccc1` [GGTI-286, reference compound], for which, in test [1], the “BMP-2 mRNA expression with a GGTase inhibitor, level compared with SV” value is given as “able to increase BMP-2 mRNA expression, but the level was much lower than that found with SV”.

Take `C=C(C)[C@@H]1CC=C(CO)CC1` [POH, reference compound]: the “BMP-2 mRNA expression with a GGTase inhibitor, level compared with SV” value in test [1] is “able to increase BMP-2 mRNA expression, but the level was much lower than that found with SV”.

Consider `CCC(C)(C)C(=O)O[C@H]1C[C@@H](C)C=C2C=C[C@H](C)[C@H](CC[C@@H](O)C[C@@H](O)CC(=O)O)[C@H]21` [SVA, simvastatin beta-hydroxy acid], for which the “anabolic effect relative to SV alone” value with avascular tissue (regeneration of avascular tissue upon direct administration) is on record as 5-6 times. Moreover, the “inhibition of mevalonate conversion compared with SV” value in the test with mevalonate conversion was “more efficiently than SV”. In addition, in test [1] (1 μM, Day 1 to 3, rat NP cells), the “mRNA expression of BMP-2 in cells treated with SVA compared to cells treated with SV” value is given as “the same or doubled”. The “BMP-2 level induced in the SVA group relative to the SV group” value in test [1] (1 μM, Day 7, rat NP cells) is 5-6 times. The “difference in BMP-2 level between SVA and SV” value in test [1] (3 μM, rat NP cells) was “further augmented”.

As for `CCC(C)(C)C(=O)OC1CC(C)C(O)C2=CC(O)C(C)C(CCC3CC(O)CC(=O)O3)C21` (centres unmarked) [dSV, 3′,5′-dihydrodiol simvastatin], the regeneration on administration result in the test on avascular tissue was “promoted a degree of regeneration”. For the same molecule, the “effect on BMP-2 upregulation” value in the test on BMP-2 is reported as “also affect BMP-2 upregulation”.
